Data as given in patent US6733777B2, “Cationic reagents of transfection” (Qiagen GmbH, priority 1996, dated 2004).
Read-outs that look alike come from different tables or passages of the source.

Key:
HeLaS3 cells [1] = settings: liposome with DOPE, 0.5 μg pCMVβ
Experimental: (§1) Without sonication, liposomes were prepared at 60° C. by combining DOPE with one of the following:
(§2) The resulting liposomes were used to transfect HeLaS3 and Huh7 cells in vitro with the reporter plasmid pCMVβ (Clontech). Transfection efficiency values, obtained by taking OD measurements after cell-lysis and β-Gal activity assay, were compared to efficiencies obtained in parallel with a commercially available liposome-preparation (Lipofectamine, Gibco LTI) and given as percentage of Lipofectamine efficiency. In each transfection, 0.5 μg of pCMVβ (isolated with EndoFree, QIAGEN) was used per well of a 96 well plate. The DNA was diluted to 50 μl with DMEM medium (Gibco LTI) and combined with 1, 2, 3 and 4 μl of the liposome preparations subsequently diluted to 50 μl with DMEM medium. DNA and liposome solutions were mixed and applied to the cells for 6 hours at 37° C., 5% CO2. Afterwards, medium was changed to DMEM containing 10% fetal calf serum. Cells were lysed after 48 h incubation at 37° C., 5% CO2.
(§3) Twofold determinations each were performed. The values were averaged and the highest efficiency (optimum) within a row was given as percentage value of the highest efficiency (optimum) obtained with Lipofectamine.

Huh7 cells = settings: liposome with DOPE, 0.5 μg pCMVβ
Experimental: as §1, §2, §3

HeLaS3 cells [2] = settings: for Results (%) HeLaS3 (transfection efficiency as percentage of Lipofectamine efficiency): liposome with DOPE, 1 μg pCMVβ, optimum of 1-4 μl liposome
Experimental: (§4) Liposomes were prepared at 60° C. by combining 10-3-10 (Propandiyl-1,3-bis(decyl dimethylammonium bromide) and DOPE (as described in Example 3), with and without sonication.
(§5) Liposomes were used to transfect HeLaS3 and COS7 cells in vitro with the reporter plasmid pCMVβ (Clontech). Transfection efficiencies, as obtained by optical density (OD) measurements after cell-lysis and β-Gal activity assay, were compared to efficiencies obtained in parallel with a commercially available liposome-preparation (Lipofectamine, Gibco LTI) and given as percentage of Lipofectamine efficiency. For each transfection, 1 μg of pCMVβ (isolated with EndoFree, QIAGEN) was used per well of a 96-well plate. The DNA was diluted to 50 μl with DMEM medium (Gibco LTI) and combined with 1, 2, 3 and 4 μl of the liposome preparations subsequently diluted to 50 μl with DMEM medium. DNA and liposome solutions were mixed and applied to the cells for 6 hours at 37° C., 5% CO2. Afterwards, medium was changed to DMEM containing 10% fetal calf serum. Cells were lysed after 48 h incubation at 37° C., 5% CO2.
as §3

COS7 cells = settings: liposome with DOPE, 1 μg pCMVβ, optimum of 1-4 μl liposome
Experimental: as §4, §5, §3

[3] = X(DOPE) 0.50, without sonication
[4] = X(DOPE) 0.60, without sonication
[5] = X(DOPE) 0.70, without sonication
[6] = X(DOPE) 0.80, without sonication

In the case of “Propandiyl-1,3-bis(decyl dimethylammonium bromide) [10-3-10]”, the “Results (%) HeLaS3 (transfection efficiency as percentage of Lipofectamine efficiency)” value (HeLaS3 cells [1]; [3]) is reported as 241%, the “Results (%) HeLaS3 (transfection efficiency as percentage of Lipofectamine efficiency)” value (HeLaS3 cells [1]; [4]) is reported as 293% and the “Results (%) HeLaS3 (transfection efficiency as percentage of Lipofectamine efficiency)” value (HeLaS3 cells [1]; [5]) is reported as 223%. For the same substance, the “Results (%) HeLaS3 (transfection efficiency as percentage of Lipofectamine efficiency)” value (HeLaS3 cells [1]; [6]) was 118%, the “Results (%) Huh7 (transfection efficiency as percentage of Lipofectamine efficiency)” value (Huh7 cells; [3]) was 80% and the “Results (%) Huh7 (transfection efficiency as percentage of Lipofectamine efficiency)” value (Huh7 cells; [4]) was 83%. For the same substance, the “Results (%) Huh7 (transfection efficiency as percentage of Lipofectamine efficiency)” value (Huh7 cells; [5]) was 54%, the “Results (%) Huh7 (transfection efficiency as percentage of Lipofectamine efficiency)” value (Huh7 cells; [6]) was 39% and the “Results (%) HeLaS3 (transfection efficiency as percentage of Lipofectamine efficiency)” value (HeLaS3 cells [2]; X(DOPE) 0.20, sonic. for 300 s) was 39%. For the same substance, the “Results (%) HeLaS3 (transfection efficiency as percentage of Lipofectamine efficiency)” value (HeLaS3 cells [2]; X(DOPE) 0.20, w/o sonication) was 39%, the “Results (%) HeLaS3 (transfection efficiency as percentage of Lipofectamine efficiency)” value (HeLaS3 cells [2]; X(DOPE) 0.35, sonic. for 300 s) was 39% and the “Results (%) HeLaS3 (transfection efficiency as percentage of Lipofectamine efficiency)” value (HeLaS3 cells [2]; X(DOPE) 0.35, w/o sonication) was 61%. The “Results (%) HeLaS3 (transfection efficiency as percentage of Lipofectamine efficiency)” value (HeLaS3 cells [2]; X(DOPE) 0.50, sonic. for 300 s) was 47%, the “Results (%) HeLaS3 (transfection efficiency as percentage of Lipofectamine efficiency)” value (HeLaS3 cells [2]; X(DOPE) 0.50, w/o sonication) was 115% and the “Results (%) HeLaS3 (transfection efficiency as percentage of Lipofectamine efficiency)” value (HeLaS3 cells [2]; X(DOPE) 0.65, sonic. for 300 s) was 83%. For the same substance, the “Results (%) HeLaS3 (transfection efficiency as percentage of Lipofectamine efficiency)” value (HeLaS3 cells [2]; X(DOPE) 0.65, w/o sonication) was 275%, the “cell-type specificity compared with Lipofectamine” value (HeLaS3 cells [2]; liposomes with DOPE, HeLaS3 versus COS7) was “more cell-type specific than Lipofectamine” and the “Results % COS7 (transfection efficiency as percentage of Lipofectamine efficiency)” value (COS7 cells; X(DOPE) 0.20, sonic. for 300 s) was 6%. For the same substance, the “Results % COS7 (transfection efficiency as percentage of Lipofectamine efficiency)” value (COS7 cells; X(DOPE) 0.20, w/o sonication) was 6%, the “Results % COS7 (transfection efficiency as percentage of Lipofectamine efficiency)” value (COS7 cells; X(DOPE) 0.35, sonic. for 300 s) was 6% and the “Results % COS7 (transfection efficiency as percentage of Lipofectamine efficiency)” value (COS7 cells; X(DOPE) 0.35, w/o sonication) was 6%. The “Results % COS7 (transfection efficiency as percentage of Lipofectamine efficiency)” value (COS7 cells; X(DOPE) 0.50, sonic. for 300 s) was 6%, the “Results % COS7 (transfection efficiency as percentage of Lipofectamine efficiency)” value (COS7 cells; X(DOPE) 0.50, w/o sonication) was 7% and the “Results % COS7 (transfection efficiency as percentage of Lipofectamine efficiency)” value (COS7 cells; X(DOPE) 0.65, sonic. for 300 s) was 8%. The “Results % COS7 (transfection efficiency as percentage of Lipofectamine efficiency)” value (COS7 cells; X(DOPE) 0.65, w/o sonication) was 26%.
